Test: Anticancer human tumor 997537-175-T-J1-PDC patient-derived colon adenocarcinoma cell line growth inhibition [POLQ]
Conditions: 997537-175-T-J1-PDC complex spheroid viability, combination with POLQ inhibitors; for IC50: curve of first compound; for viability, T/C: stronger effect = lower value
Method in brief: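 Complex spheroid viability model combining PDC tumour cells with endothelial (HUVEC) and MSC stromal cells. Novobiocin, ART-558 or RP6685 were tested singly and in combination with standard and investigational anticancer drugs. Each was titrated in half-log steps from near clinical Cmax, or from 10 microM where Cmax was unknown.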

[1] = second compound 0.0316 µM, first compound 0.0316 µM
[2] = second compound 0.0316 µM, first compound 0.1 µM
[3] = second compound 0.0316 µM, first compound 0.316 µM
[4] = second compound 0.0316 µM, first compound 1 µM
[5] = second compound 0.1 µM, first compound 0.0316 µM
[6] = second compound 0.1 µM, first compound 0.1 µM
[7] = second compound 0.1 µM, first compound 0.316 µM
[8] = second compound 0.1 µM, first compound 1 µM
[9] = second compound 0.316 µM, first compound 0.0316 µM
[10] = second compound 0.316 µM, first compound 0.1 µM
[11] = second compound 0.316 µM, first compound 0.316 µM
[12] = second compound 0.316 µM, first compound 1 µM
[13] = second compound 1 µM, first compound 0.0316 µM
[14] = second compound 1 µM, first compound 0.1 µM
[15] = second compound 1 µM, first compound 0.316 µM
[16] = second compound 1 µM, first compound 1 µM
[17] = second compound 3.16 µM, first compound 0.0316 µM
[18] = second compound 3.16 µM, first compound 0.1 µM
[19] = second compound 3.16 µM, first compound 0.316 µM
[20] = second compound 3.16 µM, first compound 1 µM
[21] = second compound 10 µM, first compound 0.0316 µM
[22] = second compound 10 µM, first compound 0.1 µM
[23] = second compound 10 µM, first compound 0.316 µM
[24] = second compound 10 µM, first compound 1 µM
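Note: luminescence signal used as a surrogate for viable cells; spheroids exposed to drugs for seven days before readout.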

CCCS(=O)(=O)Nc1ccc(F)c(C(=O)c2c[nH]c3ncc(-c4ccc(Cl)cc4)cc23)c1F + Cc1cccc(N(C)C(=O)C2C(O)CCN2c2nc(C)cc(C(F)(F)F)c2C#N)c1
IC50 (second compound 0.0316 µM): 4850 nM | IC50 (second compound 0.1 µM): 5350 nM | IC50 (second compound 0.316 µM): 5840 nM | IC50 (second compound 1 µM): 4490 nM | IC50 (second compound 3.16 µM): 6650 nM | IC50 (second compound 10 µM): 5160 nM | viability, T/C [1]: 100% | viability, T/C [2]: 79.5% | viability, T/C [3]: 82.5% | viability, T/C [4]: 75.4% | viability, T/C (second compound 0.0316 µM, first compound 3.16 µM): 70.5% | viability, T/C (second compound 0.0316 µM, first compound 10 µM): 22.8% | viability, T/C [5]: 105% | viability, T/C [6]: 91.7% | viability, T/C [7]: 82.4% | viability, T/C [8]: 83% | viability, T/C (second compound 0.1 µM, first compound 3.16 µM): 74.5% | viability, T/C (second compound 0.1 µM, first compound 10 µM): 25.9% | viability, T/C [9]: 105% | viability, T/C [10]: 78% | viability, T/C [11]: 71.7% | viability, T/C [12]: 75.4% | viability, T/C (second compound 0.316 µM, first compound 3.16 µM): 80.8% | viability, T/C (second compound 0.316 µM, first compound 10 µM): 23.1% | viability, T/C [13]: 102% | viability, T/C [14]: 87.4% | viability, T/C [15]: 85.9% | viability, T/C [16]: 75.7% | viability, T/C (second compound 1 µM, first compound 3.16 µM): 61.5% | viability, T/C (second compound 1 µM, first compound 10 µM): 29.5% | viability, T/C [17]: 85.7% | viability, T/C [18]: 77% | viability, T/C [19]: 77.7% | viability, T/C [20]: 68% | viability, T/C (second compound 3.16 µM, first compound 3.16 µM): 75.1% | viability, T/C (second compound 3.16 µM, first compound 10 µM): 36.7% | viability, T/C [21]: 92.3% | viability, T/C [22]: 88.9% | viability, T/C [23]: 86.1% | viability, T/C [24]: 81.5% | viability, T/C (second compound 10 µM, first compound 3.16 µM): 73.3% | viability, T/C (second compound 10 µM, first compound 10 µM): 20.6%

COc1cccc(OCCCN)c1-c1cc(Nc2cnc(C#N)cn2)n[nH]1 + Cc1cccc(N(C)C(=O)C2C(O)CCN2c2nc(C)cc(C(F)(F)F)c2C#N)c1
IC50 (second compound 0.0316 µM): 131 nM | IC50 (second compound 0.1 µM): 139 nM | IC50 (second compound 0.316 µM): 125 nM | IC50 (second compound 1 µM): 39 nM | IC50 (second compound 3.16 µM): 23.7 nM | IC50 (second compound 10 µM): 135 nM | viability, T/C (second compound 0.0316 µM, first compound 0.00316 µM): 92.7% | viability, T/C (second compound 0.0316 µM, first compound 0.01 µM): 97.7% | viability, T/C [1]: 79% | viability, T/C [2]: 60.8% | viability, T/C [3]: 22.5% | viability, T/C [4]: 27.9% | viability, T/C (second compound 0.1 µM, first compound 0.00316 µM): 111% | viability, T/C (second compound 0.1 µM, first compound 0.01 µM): 107% | viability, T/C [5]: 50.1% | viability, T/C [6]: 73% | viability, T/C [7]: 32.8% | viability, T/C [8]: 31.2% | viability, T/C (second compound 0.316 µM, first compound 0.00316 µM): 100% | viability, T/C (second compound 0.316 µM, first compound 0.01 µM): 79.8% | viability, T/C [9]: 70.1% | viability, T/C [10]: 45.3% | viability, T/C [11]: 48.2% | viability, T/C [12]: 20% | viability, T/C (second compound 1 µM, first compound 0.00316 µM): 101% | viability, T/C (second compound 1 µM, first compound 0.01 µM): 79.1% | viability, T/C [13]: 59.6% | viability, T/C [14]: 25.9% | viability, T/C [15]: 29.5% | viability, T/C [16]: 27.4% | viability, T/C (second compound 3.16 µM, first compound 0.00316 µM): 86.6% | viability, T/C (second compound 3.16 µM, first compound 0.01 µM): 85.4% | viability, T/C [17]: 38% | viability, T/C [18]: 20.6% | viability, T/C [19]: 18.4% | viability, T/C [20]: 36% | viability, T/C (second compound 10 µM, first compound 0.00316 µM): 86.8% | viability, T/C (second compound 10 µM, first compound 0.01 µM): 73.6% | viability, T/C [21]: 62.9% | viability, T/C [22]: 45.8% | viability, T/C [23]: 53.1% | viability, T/C [24]: 30.1%

Reference: PubChem BioAssay AID1963825 (Molecular Pharmacology Branch, DTP, NCI, 2024)
